Measured values taken from patent publication US4923802A, “Peptide substrates for the detection, characterization and purification of protein kinase C” (Immunex Corporation, priority 1985, dated 1990).
Entries after “also recorded” stand apart in the source; their conditions may differ. Ends that are not written are not given here.

Tests used:
protein kinase C [1] = assay: Direct assay for protein kinase C: phosphorylation of peptide substrate with (gamma 32P) ATP, phosphocellulose filter counting; assay type: biochemical, rat
Procedure: The peptide substrate of the present invention may be employed to assay for the presence of protein kinase C, for instance, during the above-outlined process of preparing the enzyme. The assay is based on the phosphorylation of the peptide substrate by protein kinase C. In the assay, the sample to be tested is mixed together with the peptide substrate, radiolabeled ATP, Ca^2+, phospholipid and diacylglycerol. The mixture is incubated for only a brief period to insure linearity of the reaction and then spotted onto phosphocellulose filter paper. The level of radioactivity on the filter is measured, for instance by liquid scintillation spectrometry. The level of radiation is indicative of the extent to which the substrate has been phosphorylated, which in turn is indicative of the amount of protein kinase C present in the sample being assayed. As can be appreciated, by use of the peptide substrate for the present invention, the presence of protein kinase C may be conveniently and rapidly assayed.
Protein kinase C was prepared from the brains of eight rats each having a weight of from 150 to 200 grams. The rats are sacrificed by cervical dislocation. The brains of the rats are removed and placed in eight volumes of ice-cold buffer A (40 ml), composed of the following: 20 mM 4-(2-hydroxyethyl)-1-piperazineethanesulfonic acid ("HEPES"), pH 7.5; 0.3 M sucrose; 2 mM ethyl-enediaminetetracetic acid ("EDTA"); 10 mM ethylene glycol bis(B -aminoethylether)-N, N, N', N'-tetraacetic acid ("EGTA"); 2 mM dithiothreitol ("DDT"); 1 mM phenylmethylsulfonyl; 10 ug/ml pepstatin A; 10 ug/ml soybean tripsyn inhibitor; 10 ug/ml leupeptin; and 10 uM E-64 (Peninsula Labs). E 64 is an inhibitor of CA^2+ -activated proteases. The brains are homogenized with 5 strokes of teflon-glass homogenizer and centrifuged for one hour at 100,000×g in a Ti 75 rotor. The resulting supernatant is saved and adjusted to a conductivity of 0.7-0.9 mmho. […]

protein kinase C [2] = details: cited from earlier work

Row | reaction rate (rate of phosphorylation) (protein kinase C [1]; peptide concentration 1 mM) [pmole PO4 /min] | Substance | Km (in words) (protein kinase C [1]; protein kinase C, no saturation at 3 mM) | saturation of protein kinase C with substrate (protein kinase C [1]; up to 3 mM peptide) | rate of reaction (protein kinase C [2]; peptide concentration 450 μM) [pmole PO4 /min] | Km (protein kinase C [2]; protein kinase C, O'Brian et al., read-out: Km of the reaction) [µM]
1 | 20 | LRRASLG [Kemptide, Leu-Arg-Arg-Ala-Ser-Leu-Gly] | so high that it could not be determined; also recorded: too high to be determined | not saturated; also recorded: will not saturate | – | –
2 | – | RRKASGPPV | – | – | 8 | 130
